Experimental data as given in article PMC4427029 (Cell, 2015).
Like-named read-outs stand apart in the source and are kept apart here. Values belong to the molecule of their own block, whether it stands above or below them.

Assays:
AT1R = conditions: cited from earlier work
AT1R single mutants [1] = assay: Ligand binding assays on AT1R single mutants, COS-1 cell membranes; conditions: residues Tyr35, Trp84, Arg167 and Lys199
AT1R single mutants [2] = target: T1, AT1R single mutants (Homo sapiens, UniProt P30556, P285A); assay: as above; conditions: Pro285Ala mutant
T1 sequence (P30556 1-359 P285A): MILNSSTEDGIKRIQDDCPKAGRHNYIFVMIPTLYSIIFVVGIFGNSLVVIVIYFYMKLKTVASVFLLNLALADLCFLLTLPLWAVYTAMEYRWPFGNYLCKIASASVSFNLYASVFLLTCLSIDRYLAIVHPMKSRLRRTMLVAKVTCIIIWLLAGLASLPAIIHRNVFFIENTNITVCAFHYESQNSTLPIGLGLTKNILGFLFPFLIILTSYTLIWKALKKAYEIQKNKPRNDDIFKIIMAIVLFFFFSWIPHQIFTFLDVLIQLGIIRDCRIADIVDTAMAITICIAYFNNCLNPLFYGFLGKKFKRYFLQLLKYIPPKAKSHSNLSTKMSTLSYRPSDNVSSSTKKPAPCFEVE

Molecule: CCCCc1nc(Cl)c(CO)n1Cc1ccc(-c2ccccc2-c2nn[nH]n2)cc1 [Losartan, losartan]
binding affinity to AT1R compared to the later developed ARBs (AT1R; ref Miura et al., 2011): lower | mode of antagonism (AT1R; ref Miura et al., 2011): surmountable antagonist

Molecule: CCc1cc2c(c(CC)n1)CCC(=O)N2Cc1ccc(-c2ccccc2-c2nn[nH]n2)cc1 [ZD7155]
potency and duration compared with losartan (AT1R; ref Junggren et al., 1996): more potent and longer-lasting

Molecule: CCOc1nc2cccc(C(=O)O)c2n1Cc1ccc(-c2ccccc2-c2nnn[nH]2)cc1 [candesartan]
dissociation rate from AT1R (AT1R; ref Takezako et al., 2004): slow | mode of antagonism (AT1R; ref Takezako et al., 2004): insurmountable inverse agonist | role of residues for binding (mutagenesis) (AT1R single mutants [1]): critical

change of binding affinity at mutant (AT1R single mutants [2]): strong decrease
Molecule: CCCCc1ncc(/C=C(\Cc2cccs2)C(=O)O)n1Cc1ccc(C(=O)O)cc1 [eprosartan]

Molecule: [Sar^1, Ile^8]-AngII
role of residues for binding (mutagenesis) (AT1R single mutants [1]): critical
